Measurements taken from PMC2363125 (British Journal of Cancer, 1999).
“And” between values parts separate entries of the source, which are not always exact repeats. Equal entries are not always repeated. “Also recorded” adds a separate entry of the source.

Legend:
[1] = system: L1210 cells; assay: cells; details: for CC50: Mus musculus, L1210, 16 h, read-out: LC50; for reduction of nolatrexed LC90: absence of salvageable thymidine, abstract
From the text: (§1) In particular, inhibition of thymidylate synthase (TS) is an attractive target for antimetabolite chemotherapy because thymine is the only nucleobase found exclusively in DNA and TS is a key enzyme, possibly the rate-limiting step, in DNA synthesis. One locus of action of 5-fluorouracil (5-FU), which is widely used for the treatment of colorectal, breast and head-and- neck cancer, is TS inhibition following its intracellular conversion to 5-FdUMP. […] Inhibition of TS results in the depletion of intracellular dTTP and, as a result of elevated dUMP levels, an accummulation of dUTP. […] In addition, release of nucleic acids from dead cells may result in high local concen- trations of salvageable nucleosides and bases in tumours. Salvage of pre-formed nucleosides is dependent on uptake across the plasma membrane into the cell. At physiological nucle- oside concentrations the principal mode of nucleoside uptake is via the es and ei equilibrative carriers, described as such on the basis of their sensitivity (es) or insensitivity (ei) to the transport inhibitor nitrobenzylmercaptopurine riboside (NBMPR). […] In addition, potentiation of the cytotoxicity of 5-FU was investigated. […] All other chemicals were obtained from Sigma unless stated otherwise. […] For growth inhibition and cytotoxicity assays, cells were adapted to grow in RPMI medium supplemented with 10% (v/v) dialysed serum (dialysed for 24 h at 4C against two changes of 9 volumes of phosphate-buffered saline (PBS) containing 1 g activated charcoal L-1 and a further two changes of 9 volumes of PBS) to remove thymidine. […] The uptake of 100 M thymidine by […] was followed at 2-second intervals over a 12-second time course in the presence or absence of inhibitor in 1% or 5% (v/v) DMSO. […] Exponentially growing L1210 cells were washed with and resus- pended in ice-cold transport buffer (130 mM sodium chloride, 5 mM potassium chloride, 1 mM magnesium chloride, 5 mM NaH2 PO4 , 10 mM glucose and 10 mM HEPES pH 7.4) at 2-4 x 10^7 cells ml-1 . […] Transport was initiated by adding 50 l of 300 M thymidine in transport buffer, containing 25 Ci ml-1 [methyl-3 H]thymidine (Sp. Act. 1.5-2.2 TBq mmol-1; Amersham, UK) and 2 Ci ml-1 [U-14 C]sucrose (17-27 GBq mmol-1; Amersham), to each tube in turn at 1-second intervals, giving final concentrations of: […] in transport buffer 5 mg ml-1 AGP, 100 M thymidine and 1% or 5% (v/v) DMSO inhibitor. […] The tubes were immediately centrifuged at 12 000g for 2 min at room temperature causing the cells to pass through the oil and into the KOH. […] Cell number and viability in each assay was determined by haemocytometer counting using trypan blue exclu- sion. After centrifugation the tubes were capped and cut in the oil layer such that the bottom portion (cells solubilized in KOH) fell into a 20 ml scintillation vial. […] The rate of thymidine uptake in the presence and absence of inhibitor was calculated by unweighted linear regres- sion analysis of thymidine uptake (pmol 10-6 cells) vs time (seconds) using GraphPad PRISMTM software (GraphPad Software Inc. San Diego, CA, USA). […] Kt and Tmax values were calculated using the equation describing a one-site binding hyperbola, fitted using GraphPad PRISM software. […] The DMSO concentration was controlled so as to be present at 1% (v/v) in the final incubation. Replicate aliquots of the remaining cell suspension were counted to obtain a time zero cell count.

[2] = system: L1210 cells; assay: Growth inhibition assay, CB3717 with or without thymidine and transport inhibitor, 48 h cell count; type: cell-based, murine; details: for potentiation of CB3717 growth inhibition / reversal of thymidine rescue from CB3717 growth inhibition: 1 μM transport inhibitor, data not shown; for % Control cell growth + 3 M CB3717, + 1 M TdR / % Control cell growth + 3 M CB3717, no TdR / % Control cell growth + 10 M CB3717, + 1 M TdR / % Control cell growth + 10 M CB3717, no TdR: 10 μM transport inhibitor, normalized to inhibitor alone
[3] = system: thymidine transport (nucleoside transporter) in L1210 cells; assay: Inhibition kinetics of thymidine transport (Kt, Tmax, Dixon plot Ki); details: for Ki: read-out: Ki for inhibition of thymidine uptake, L1210, abstract
From the text: as §1

[4] = in vitro; details: mouse
From the text: as §1

[5] = system: thymidine uptake (nucleoside transport, es and ei equilibrative carriers) in L1210 cells; assay: Nucleoside transport inhibition assay (thymidine uptake, rapid mixing technique); type: cell-based, murine; details: for IC50: absence of AGP, point-to-point curve; for IC50 / % inhibition of thymidine uptake: L1210
From the text: Antimetabolite inhibitors of de novo purine and pyrimidine synthesis are used extensively in cancer chemotherapeutic regimes (Schilsky, 1992). In particular, inhibition of thymidylate synthase (TS) is an attractive target for antimetabolite chemotherapy because thymine is the only nucleobase found exclusively in DNA and TS is a key enzyme, possibly the rate-limiting step, in DNA synthesis. One locus of action of 5-fluorouracil (5-FU), which is widely used for the treatment of colorectal, breast and head-and- neck cancer, is TS inhibition following its intracellular conversion to 5-FdUMP. […] Inhibition of TS results in the depletion of intracellular dTTP and, as a result of elevated dUMP levels, an accummulation of dUTP. This nucleotide pool imbalance contributes to DNA strand breakage and cell death (Curtin et al, 1991). […] Furthermore, resistance to antimetabolities mediated by nucleoside salvage may increase with malignancy (Fox et al, 1991; Kinsella and Harran, 1991). In addition, release of nucleic acids from dead cells may result in high local concen- trations of salvageable nucleosides and bases in tumours. Salvage of pre-formed nucleosides is dependent on uptake across the plasma membrane into the cell. At physiological nucle- oside concentrations the principal mode of nucleoside uptake is via the es and ei equilibrative carriers, described as such on the basis of their sensitivity (es) or insensitivity (ei) to the transport inhibitor nitrobenzylmercaptopurine riboside (NBMPR). […] Two antifolate TS inhibitors were selected for study: the classical antifolate, CB3717 (N10 -pro- pargyl-5,8-dideazafolic acid), and the non-classical antifolate TS inhibitor, nolatrexed (AG337, Thymitaq, 3,4-dihydro-2-amino- 6-methyl-4-oxo-5-(4-pyridylthio)-quinazoline dihydrochloride) (Webber et al, 1996). In addition, potentiation of the cytotoxicity of 5-FU was investigated. […] MATERIALS AND METHODS Drugs CB3717 (a gift from Zeneca Pharmaceuticals, Alderley Park, UK) was dissolved in 0.15 M sodium hydrogen carbonate and stored at 4C. […] All other chemicals were obtained from Sigma unless stated otherwise. Cell culture Murine leukaemia L1210 cells were used because their nucleoside transport characteristics have been well defined (Crawford et al, 1990). Cells were maintained as exponentially growing cultures (< 8 x 10^5 cells ml-1 ) in RPMI-1640 medium supplemented with 10% (v/v) fetal calf serum (Sigma), at 37C in an atmosphere of 5% carbon dioxide in air. […] For growth inhibition and cytotoxicity assays, cells were adapted to grow in RPMI medium supplemented with 10% (v/v) dialysed serum (dialysed for 24 h at 4C against two changes of 9 volumes of phosphate-buffered saline (PBS) containing 1 g activated charcoal L-1 and a further two changes of 9 volumes of PBS) to remove thymidine. […] Cells were routinely tested to exclude mycoplasma contamination (Chen, 1977). Nucleoside transport inhibition assay Thymidine uptake was assayed in L1210 cells using a modifica- tion of the rapid mixing technique of Wohlheuter et al (1978). The uptake of 100 µM thymidine by […] was followed at 2-second intervals over a 12-second time course in the presence or absence of inhibitor in 1% or 5% (v/v) DMSO. In experiments to determine the effect of AGP, the uptake of thymidine was also measured in the presence of 5 mg ml-1 human AGP (Sigma), which is the upper limit of plasma AGP concentrations in cancer patients, i.e. approx- imately 125 M (Kremer et al, 1988).

[6] = system: human cancer cell lines; parameters: method as in P Smith, manuscript in preparation; details: ref P Smith, manuscript in preparation; cited from earlier work
[7] = LC50 alone/LC50 + 1 μM inhibitor
[8] = inhibitor 1 μM, no AGP, 100 μM thymidine
[9] = inhibitor 10 μM + 5 mg ml-1 AGP
[10] = inhibitor 10 μM, no AGP, 100 μM thymidine

Row | Compound | potentiation of CB3717 growth inhibition [2] | % Control cell growth + 3 M CB3717, + 1 M TdR ([2]; 48 h) [%] | % Control cell growth + 3 M CB3717, no TdR ([2]; 48 h) [%] | % Control cell growth + 10 M CB3717, + 1 M TdR ([2]; 48 h) [%] | % Control cell growth + 10 M CB3717, no TdR ([2]; 48 h) [%] | IC50 [5] | % inhibition of thymidine uptake [5, 8] [%] | % inhibition of thymidine uptake [5, 9] [%] | % inhibition of thymidine uptake [5, 10] [%] | also measured
1 | O=c1[nH]cc(F)c(=O)[nH]1 [5-FU, 5-fluorouracil] | – | – | – | – | – | – | – | – | – | CC50 [1]: 3700 nM
2 | C#CCN(Cc1ccc2nc(N)[nH]c(=O)c2c1)c1ccc(C(=O)N[C@@H](CCC(=O)O)C(=O)O)cc1 [CB3717, N10-propargyl-5,8-dideazafolate, reference compound] | – | – | – | – | – | – | – | – | – | % Control cell growth, 3 M CB3717, + 1 M TdR ([2]; No inhibitor, 48 h): 104%; % Control cell growth, 3 M CB3717, no TdR ([2]; No inhibitor, 48 h): 40%; % Control cell growth, 10 M CB3717, + 1 M TdR ([2]; No inhibitor, 48 h): 107%; % Control cell growth, 10 M CB3717, no TdR ([2]; No inhibitor, 48 h): 5%
3 | OCCN(CCO)c1nc(N2CCCCC2)c2nc(N(CCO)CCO)nc(N3CCCCC3)c2n1 [Dipyridamole, 2,6-bis-(diethanolamino)-4,8-di-piperidino-pyrimidopyrimidine] | modest potentiation | 4 | 4 | 1 | 0 | – | – | – | – | type of inhibition of thymidine uptake ([3]; L1210): mixed-type inhibition; apparent Tmax of thymidine transport ([3]; in the presence of 0.3 μM inhibitor, L1210): 8.4 pmol/10-6 cells/s; Ki [3]: 280 nM; reversal of thymidine rescue from CB3717 growth inhibition [2]: partial reversal; activity at 16 h, 1 µM [4]: 100%; EF50 (enhancement factor), nolatrexed [1, 7]: 1.3; EF90 (enhancement factor), nolatrexed ([1]; LC90 alone/LC90 + 1 μM inhibitor, listed as DP): 7.5 and 6.1; reduction of nolatrexed LC90 [1]: > threefold; potentiation of 5-FU cytotoxicity ([1]; mouse): Significant potentiation
4 | CC1(C)OCC(COc2nc(N3CCCCC3)c3nc(OCC4COC(C)(C)O4)nc(N4CCCCC4)c3n2)O1 (centres unmarked) [NU3026, 2,6-di-(2,2-dimethyl-1,3-dioxolan-4-yl)-methoxy-4,8-di-piperidinopyrimido-pyrimidine] | modest potentiation | 26 | 8 | 20 | 1 | 1200 nM and 1100 nM | 47 | 62 | 87 | –
5 | COCC(COc1nc(N2CCCCC2)c2nc(OCC(COC)OC)nc(N3CCCCC3)c2n1)OC (centres unmarked) [NU3059, 2,6-bis-(2,3-dimethoxypropoxy)-4,8-di-piperidino-pyrimidopyrimidine] | modest potentiation | 10 | 5 | 7 | 0 | 1900 nM | 38 | 67 | 87 | reversal of thymidine rescue from CB3717 growth inhibition [2]: partial reversal
6 | COCCN(CCOC)c1nc(N2CCCCC2)c2nc(N(CCOC)CCOC)nc(N3CCCCC3)c2n1 [NU3060, 2,6-bis[N,N-di(2-methoxy)ethyl]-4,8-di-piperidino-pyrimidopyrimidine] | – | 59 | 29 | 37 | 3 | 2100 nM | 29 | 43 | 86 | –
7 | COc1ccc(CNc2nc(N(CCO)CCO)nc3c(NCc4ccc(OC)cc4)nc(N(CCO)CCO)nc23)cc1 [NU3076] | – | – | – | – | – | 250 nM | 56 | 89 | 96 | effect of AGP on inhibition of thymidine uptake ([5]; AGP 5 mg ml-1, inhibitor 1 and 10 μM): not significantly affected; % inhibition of thymidine uptake ([5]; inhibitor 1 μM + 5 mg ml-1 AGP): 46%; type of inhibition of thymidine uptake ([3]; L1210): mixed-type inhibition; Ki [3]: 100 nM; cell survival, inhibitor alone (cytotoxic per se) ([1]; 1 μM inhibitor alone, L1210): 100%; prevention of thymidine rescue from nolatrexed cytotoxicity ([1]; 1 μM inhibitor, 10 μM nolatrexed + 1 μM thymidine): partially blocked; also recorded: reduced but not blocked completely; potentiation of 5-FU cytotoxicity ([1]; 1 μM inhibitor, high 5-FU concentrations (30 and 100 μM), not significant at lower concentrations): Significant potentiation; EF50 (enhancement factor), 5-FU [1, 7]: 1.1; EF50 (enhancement factor), nolatrexed [1, 7]: 1.6; EF90 (enhancement factor), 5-FU ([1]; LC90 alone/LC90 + 1 μM inhibitor): 1.3; reduction of nolatrexed LC90 [1]: > threefold; block of thymidine rescue from TS inhibitor cytotoxicity [6]: can block thymidine rescue
8 | Cc1ccc2nc(N)[nH]c(=O)c2c1Sc1ccncc1.Cl.Cl [Nolatrexed, 3,4-dihydro-2-amino-6-methyl-4-oxo-5-(4-pyridylthio)-quinazoline dihydrochloride] | – | – | – | – | – | – | – | – | – | effect of 1 μM thymidine on cytotoxic effect of 10 μM nolatrexed [1]: completely prevented; cells surviving ([1]; 10 μM nolatrexed alone, 16 h): 10-20%; CC50 [1]: 3100 nM
